Assay results taken from patent publication US20220372013A2, “PIPERIDINE-2,6-DIONE DERIVATIVES AND CROHN'S DISEASE TREATING” (Tianjin Hemay Pharmaceutical Sci-Tech Co., Ltd, priority 2016, published 2022).
Where two headings read alike, the source gives them in different places. Marks after values point to notes of the source that are not given here.

What was measured:
[1] = tested on: DNBS-Induced Inflammatory Bowel Disease Models in Rats; assay: Biological Example 3: DNBS-induced inflammatory bowel disease models in rats; type: in vivo, Wistar rats; settings: 30 mg/Kg i.g. qd × 7; for Adhesion Degree of Colon / Colon weight to length ratio / Inhibitory rate of colon adhesion / Inhibitory rate of ulcer area of colon / Inhibitory rate of weight increase per length / Ulcer area of colon: day 7; for Body weight: Mean ± SD
Experimental: (§1) 102 male Wistar rats were fasted for 40 hours. A 5% glucose injection (10 mL/Kg) was administered subcutaneously during fasting. 72 rats with normal conditions and moderate body weight were selected from the fasting rats. The animals were randomly divided into 9 groups according to the body weight (see Table 9. Grouped Table).
(§2) The animals were anesthetized with ether after 40 hours fasting. A specially made gavage device was slowly inserted into the enteric cavity at 8 cm from the anus. The model control group and each test group were administered with 0.5 mL of 50 mg/mL DNBS in 30% ethanol solution. The normal control group was administered with 0.5 mL of 30% ethanol solution. The animals were inverted in anesthesia for 15 minutes. The day when the model was prepared was day 0 of the experiment. After 4 hours of DNBS induction, the corresponding drug or the corresponding volume of 1% CMC-Na was administered once per day. On day 7 of the experiment, the animals were euthanized to score the colon adhesion degree, measure the length of colon and ulcer area, weigh colon and calculate the colon weight to length ratio.
(§3) One-way ANOVA analysis of the length of colon and colon weight per length of rats was performed by SPSS22. Statistical analyses between groups were performed. The adhesion degree was scored. Mann-Whitney U non-parametric test was performed on ulcer area. Statistical analyses between groups were performed.
(§4) Calculation Formula of Inhibitory rate of weight increase per length: (Colon weight to length ratio in model group−Colon weight to length ratio in administration group)/(Colon weight to length ratio in model group−Colon weight to length ratio in blank group)

[2] = tested on: DNBS-Induced Inflammatory Bowel Disease Models in Rats; assay: Biological Example 4: DNBS-induced inflammatory bowel disease models in rats; type: in vivo, Wistar rats; settings: 30 mg/Kg i.g. qd × 7; for Body weight: Mean ± SD; for inhibition in vivo at 30 mg/kg: Rattus norvegicus, po, 168 h
Experimental: as §1, with “72” for “40”, “injection” for “injection (10 mL/Kg)”, “subcutaneously twice” for “subcutaneously”, “88” for “72”, “11” for “9”, “11.” for “9.”
as §2, with “72” for “40”
as §3, §4

mice = assay: Biological Example 5: acute toxicity experiment of single oral administration in mice; type: in vivo; settings: single oral 1000 mg/Kg, Mean ± SD
Summary of the method: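 Fasted ICR mice (19-21 g, three females and three males per group) received a single oral dose of 1000 mg/Kg, given first to one mouse of each sex and then to the remaining four. Behaviour, nervous and autonomic signs, and deaths were recorded over 0-15 min. Animals were then observed for 7 days with daily body weight.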

Q: Which “Adhesion Degree of Colon” value [1] does the source give for `COCCCN1C(=O)CCC(N2C(=O)c3cccc(NC(C)=O)c3C2=O)C1=O` (stereo not shown) [Example 16, 4-acetylamino-2-(1-(3-methoxypropyl)-2,6-dioxopiperidin-3-yl)isoindolin-1,3-dione] here?
A: Its value is 1.1 ± 0.8 point.

Q: What about the “Colon weight to length ratio” value [1] of the same compound?
A: Its value is 114 ± 23 mg/cm.

Q: What about the “Inhibitory rate of colon adhesion” value [1] of the same compound?
A: Its value is 35.3%.

Q: What about the “Inhibitory rate of ulcer area of colon” value [1] of the same compound?
A: Its value is 72.8# %.

Q: And the “Inhibitory rate of weight increase per length” value [1]?
A: Its value is 51.9# %.

Q: What about the “Ulcer area of colon” value [1] of the same compound?
A: The value was 0.84 ± 1.25# cm^2.

Q: What about the Body weight ([1]; Day 0) of the same compound?
A: The Body weight was 137.3 ± 1.7 g.

Q: And the Body weight ([1]; Day 1)?
A: Its Body weight is 135.9 ± 3.7 g.

Q: And the Body weight ([1]; Day 2)?
A: The Body weight was 137.6 ± 7.0 g.

Q: What about the Body weight ([1]; Day 3) of the same compound?
A: The Body weight was 145.0 ± 9.2 g.

Q: What about the Body weight ([1]; Day 4) of the same compound?
A: Its Body weight is 155.2 ± 10.9 g.

Q: And the Body weight ([1]; Day 5)?
A: Its Body weight is 166.8 ± 10.2 g.

Q: What about the Body weight ([1]; Day 6) of the same compound?
A: The Body weight was 171.5 ± 15.1 g.

Q: What about the Body weight ([1]; Day 7) of the same compound?
A: The Body weight was 184.3 ± 13.8 g.

Q: What does the source list for `COCCN1C(=O)CCC(N2C(=O)c3ccc(F)cc3C2=O)C1=O` (stereo not shown) [Example 21, 5-fluoro-2-(1-(2-methoxyethyl)-2,6-dioxopiperidin-3-yl)-isoindolin-1,3-dione]?
A: Adhesion Degree of Colon [1]: 0.9 ± 0.7 point; Colon weight to length ratio [1]: 104 ± 17 mg/cm; Inhibitory rate of colon adhesion [1]: 47.1# %; Inhibitory rate of ulcer area of colon [1]: 70.0%; Inhibitory rate of weight increase per length [1]: 64.6## %; Ulcer area of colon [1]: 0.93 ± 1.52 cm^2; Body weight ([1]; Day 0): 135.6 ± 6.9 g; Body weight ([1]; Day 1): 134.4 ± 6.8 g; Body weight ([1]; Day 2): 133.9 ± 6.8 g; Body weight ([1]; Day 3): 138.7 ± 6.8 g; Body weight ([1]; Day 4): 146.4 ± 6.9 g; Body weight ([1]; Day 5): 157.9 ± 8.9 g; Body weight ([1]; Day 6): 168.3 ± 4.6 g; Body weight ([1]; Day 7): 173.5 ± 7.4 g

Q: How did the “Adhesion Degree of Colon” value ([2]; day 7) turn out when `COCCN1C(=O)CCC(N2C(=O)c3cccc(C)c3C2=O)C1=O` (stereo not shown) [Example 24, 4-methyl-2-(1-(2-methoxyethyl)-2,6-dioxopiperidin-3-yl)-isoindolin-1,3-dione] was run?
A: The value was 0.8 ± 0.7 point.

Q: What about the “Colon weight to length ratio” value ([2]; day 7) of the same compound?
A: Its value is 99 ± 18 mg/cm.

Q: What about the “Ulcer area of colon” value ([2]; day 7) of the same compound?
A: Its value is 0.3 ± 0.3 cm^2.

Q: And the Body weight ([2]; Day 1)?
A: The Body weight was 129.1 ± 5.5 g.

Q: What about the Body weight ([2]; Day 2) of the same compound?
A: Its Body weight is 130.9 ± 10.4 g.

Q: And the Body weight ([2]; Day 3)?
A: Its Body weight is 133.2 ± 14.5 g.

Q: And the Body weight ([2]; Day 4)?
A: Its Body weight is 135.3 ± 13.6 g.

Q: And the Body weight ([2]; Day 5)?
A: Its Body weight is 144.9 ± 12.6 g.

Q: And the Body weight ([2]; Day 6)?
A: Its Body weight is 145.9 ± 13.3 g.

Q: What about the Body weight ([2]; Day 7) of the same compound?
A: Its Body weight is 165.6 ± 12.1 g.

Q: And the inhibition in vivo at 30 mg/kg ([2]; day 7, read-out: Inhibitory rate of colon adhesion)?
A: The inhibition in vivo at 30 mg/kg was 62.2%.

Q: And the inhibition in vivo at 30 mg/kg ([2]; day 7, read-out: Inhibitory rate of ulcer area of colon)?
A: Its inhibition in vivo at 30 mg/kg is 87.5%.

Q: And the inhibition in vivo at 30 mg/kg ([2]; day 7, read-out: Inhibitory rate of weight increase per length)?
A: The inhibition in vivo at 30 mg/kg was 74.1%.

Q: And the “Daily Body Weight” value (mice; Female mice, Day 1)?
A: Its value is 18.4 ± 0.7 g.

Q: What about the “Daily Body Weight” value (mice; Female mice, Day 2) of the same compound?
A: The value was 22.4 ± 1.0 g.

Q: And the “Daily Body Weight” value (mice; Female mice, Day 3)?
A: Its value is 23.4 ± 1.0 g.

Q: What about the “Daily Body Weight” value (mice; Female mice, Day 4) of the same compound?
A: Its value is 23.6 ± 0.9 g.

Q: What about the “Daily Body Weight” value (mice; Female mice, Day 5) of the same compound?
A: The value was 24.3 ± 0.6 g.

Q: What about the “Daily Body Weight” value (mice; Female mice, Day 6) of the same compound?
A: Its value is 24.7 ± 0.6 g.

Q: And the “Daily Body Weight” value (mice; Female mice, Day 7)?
A: Its value is 24.8 ± 1.5 g.

Q: And the “Daily Body Weight” value (mice; Male mice, Day 1)?
A: The value was 17.7 ± 0.2 g.

Q: And the “Daily Body Weight” value (mice; Male mice, Day 2)?
A: The value was 22.3 ± 0.7 g.

Q: And the “Daily Body Weight” value (mice; Male mice, Day 3)?
A: The value was 24.5 ± 1.0 g.

Q: What about the “Daily Body Weight” value (mice; Male mice, Day 4) of the same compound?
A: Its value is 25.2 ± 1.0 g.

Q: And the “Daily Body Weight” value (mice; Male mice, Day 5)?
A: The value was 27.2 ± 1.3 g.

Q: What about the “Daily Body Weight” value (mice; Male mice, Day 6) of the same compound?
A: Its value is 28.1 ± 2.0 g.

Q: And the “Daily Body Weight” value (mice; Male mice, Day 7)?
A: Its value is 28.9 ± 1.9 g.
